For data set [1] the following is noted: cited from earlier work; for pK (first value): buffer/salt of Table 1.
Data set [2] is described as follows: Vesicularisation time: sonication of a crude suspension until opalescent/transparent, followed by turbidity. It counts as physicochemical. The source says: The term aggregate “adaptability” is herein closely related to “deformability” and can be measured using previously described methods (e.g. Wachter et al., 2008, J. Drug Targeting 16: 611). In principle, most of these methods assess the penetration of a nanoporous, semipermeable barrier by the tested aggregates in a suspension, presuming no significant aggregate fragmentation during penetration. In an alternative method, the kinetics of aggregate fragmentation under greater external stress is studied, e.g., during ultrasonication. An aggregate is considered to have an ultradeformable bilayer for purposes of the invention if its adaptability is close to or at about the highest value achievable without an appreciable, and normally spontaneous, aggregate fragmentation into smaller structures, e.g. micelles.
The term “vesicularisation time” refers to the time required to transform an originally opaque suspension (i.e. having an optical density >>3) to an opalescent/transparent suspension with a much lower optical density using external stress, e.g. generated with an ultrasound transducer, high-shear homogeniser (Ultra-Turrax®, IKA) or rotor-stator homogeniser. […]
A first consideration is that the chosen pH is far enough from the tested aggregate surface pKa,mem to exclude ionisation changes during a test; otherwise, experiments must be conducted at two or more constant, yet different, pH values and then analysed together allowing for the pH effects. […]
In a simpler and more qualitative alternative assay, one compares the test sample turbidity with an appropriate opalescent/transparent reference suspension turbidity. A series of readings taken for each representative sample at different times can likewise reveal temporal stability. Experimental data generated with this method confirmed the independency of the conclusions drawn from individual turbidity readouts for the preparations of the invention: within experimental error limits, the difference between the time required to generate more or less, but always similarly turbid suspension is generally the same. […]

A short description of data set [3]: Drug payload limit: terbinafine concentration at minimum vesicularisation time (FIG. 1 inset). It is filed as physicochemical. As to conditions: for payload (concentration at minimum vesicularisation time): phosphatidylcholine vesicles + 5 wt.-% ethanol, azeleate buffer 0.05 M. An excerpt:
FIG. 1 is a schematic representation of experiments carried out to show an effect of buffer (ionic additive) selection on the vesicularisation time of reference (i.e. containing >90% pure soybean phosphatidylcholine) vesicles and of vesicles loaded with terbinafine as a function of the bulk pH. The results of an additional test series, in which an increasing amount of terbinafine was incorporated into phosphatidylcholine vesicles (at 10 wt-%-terbinafine concentration+5 wt.-% ethanol) dispersed in azeleate buffer (0.05 M) are shown in the Inset for pH=4.55±0.1 (diamonds) and pH=3.6±0.1 (down-arrow).

[4] abbreviates: T=310 K, phospholipid plus drug ~10 w-%.

Regarding `OCCN1CCCC1` [1-Pyrrolidineethanol (epolamine), 1-Pyrrolidineethanol], in data set [1] (buffer of Table 4), the pK1 is given as 9.8. For the same compound, in data set [1], the “pK (first value)” value is reported as 9.8.
Consider `CC(=O)O` [Acetic acid], for which the “pK (first value)” value in data set [1] was 4.8.
For the compound `O=C(O)CN(CCO)CCO` [Bicine], in data set [1] (buffer of Table 4), the pK1 is given as 8.5 and the pK2 is reported as 1.9.
In the case of `OCCN(CCO)C(CO)(CO)CO` [Bis-TRIS], the pK1 in data set [1] (buffer of Table 4) is 6.5.
As for `C[N+](C)(C)CCO.[Cl-]` [Choline, chloride], the pK1 in data set [1] (buffer of Table 4) is reported as 13.9.
On to `CCNCC` [Diethylamine], for which the pK1 in data set [1] (buffer of Table 4) is 10.6.
Consider `O=C(O)[C@H](O)[C@@H](O)[C@H](O)[C@H](O)CO` [Gluconic acid], for which the “pK (first value)” value in data set [1] was 3.6.
As to `O=S(=O)(O)CCN1CCN(CCO)CC1` [HEPES], in data set [1] (buffer of Table 4), the pK1 was 7.6 and the pK2 is 1.7.
`Cl` [Hydrochloric acid, sodium, Hydrochloric acid]: the “pK (first value)” value in data set [1] is given as −9.3.
For the compound `c1c[nH]cn1` [Imidazole], in data set [1] (buffer of Table 4), the pK1 is reported as 14.5 and the pK2 is recorded as 6.9. In data set [1], the “pK (first value)” value is 6.9.
Consider `NCCCC[C@H](N)C(=O)O` [Lysine], for which, in data set [1] (buffer of Table 4), the pK1 is listed as 10.5, the pK2 was 9.1 and the pK3 is on record as 2.2.
Consider `OCCN1CCOCC1` [Morpholinoethanol], for which the pK1 in data set [1] (buffer of Table 4) was 7.4. Moreover, the “pK (first value)” value in data set [1] was 7.4.
As to `O=S(=O)(O)CCN1CCN(CCS(=O)(=O)O)CC1` [PIPES], in data set [1] (buffer of Table 4), the pK1 is given as 7.1 and the pK2 was 0.4.
In the case of `O=C1CC[C@@H](C(=O)O)N1` [Pyroglutamic acid (pidolic acid), Pyroglutamic acid], the “pK (first value)” value in data set [1] is listed as 3.5.
For `[Na+].[OH-]` [Sodium hydroxyde, NaCl, Sodium hydroxyde], the “pK (first value)” value in data set [1] is 13.0.
Consider `O=S(=O)(O)O` [Sulphuric acid], for which, in data set [1] (buffer of Table 4), the pK1 is listed as −3 and the pK2 is 1.9.
As to `O=C(O)CNC(CO)(CO)CO` [Tricine], in data set [1] (buffer of Table 4), the pK1 is 8.2 and the pK2 is reported as 2.3.
For `O=C(O)CCCCCCCC(=O)O` [azaleic acid, Azelaic acid], in data set [1], the “log P” value is > 1.
For `O=C(c1ccccc1)c1ccc2n1CCC2C(=O)O` (stereo not drawn) [ketorolac, reference compound], in data set [1] (best estimates), the “log Pmem^I” value is ~0.8, the “log Pmem^N” value is recorded as ~2.3, the pK is on record as 3.5 and the “pKa,mem” value is on record as ~5.5.
For `Cc1ccc(S(=O)(=O)O)cc1` [p-Toluenesulfonic acid], the “pK (first value)” value in data set [1] is 0.7.
For `CN(C/C=C/C#CC(C)(C)C)Cc1cccc2ccccc12` [terbinafine], the vesicularisation time entry in data set [2] (10 wt.-% total amphipat including 20 rel-% terbinafine, phosphate buffer, pH~4.4) is “exceeds 200 s”. Further, the “sonication time (vesicularisation time)” value in data set [2] (terbinafine + phosphatidylcholine, 0.1 M phosphate buffer, pH=5.7, fails to produce small aggregates above the precipitate) was “exceeding 1400 s”. The “time needed to prepare drug-loaded aggregates” value in data set [2] (terbinafine + phosphatidylcholine, phosphate buffer, pH=5.2) is “around 700 s”. Further, the “payload limit (concentration at minimum vesicularisation time)” value in data set [3] (aggregate suspensions in phosphate buffer of comparable pH) is given as < 10 wt.-%. Besides, the “higher payload in azeleate buffer compared with phosphate buffer” value in data set [3] (comparable pH) is reported as “at least 50%”. Further, the “payload (concentration at minimum vesicularisation time)” value in data set [3] (pH=3.6) is ~20%. In addition, the “payload (concentration at minimum vesicularisation time)” value in data set [3] (pH=4.55) is ~15%. In addition, in data set [1] (setting [4]), the “de/protonation constant in a membrane, pKa,mem” value was 5.5; the “de/protonation constant in the bulk, pK” value is recorded as 7.05; the “water-membrane partition ratio, ionised drug form, log Pmem^I” value is 3.78; the “water-membrane partition ratio, neutral drug form, log Pmem^N” value is 5.19.

A word on the log P: it is the decadic logarithm of the partition coefficient of the neutral form, usually between octanol and water.

These data come from US20140017302A1, “OPTIMISED PREPARATIONS OF HIGHLY ADAPTABLE AGGREGATES” (priority 2011, published 2014).
